Assay results from US8263592B2, “Equilibrative nucleoside transporter ENT1 inhibitors” (Janssen Pharmaceutica NV, priority 2007, dated 2012).
Structures can show the parent of a compound that is named as a salt.

What was measured:
human ENT1 transporter = target: T1, human ENT1 transporter (Homo sapiens, UniProt Q99808); assay: hENT1-NBMPR-ERYTH binding assay ([3H]NBMPR, human erythrocytes); details: [3H]NBMPR 1 nM, washed human red blood cells 1:200, 30 minutes at room temperature; pIC50=-log(IC50); read-out: pIC50 values for ENT1 transporter inhibition (converted)
T1 construct: with washed red blood cells diluted 1:200 in assay buffer; from tissue; host or cells: human erythrocytes (washed red blood cells from whole blood)
T1 sequence (Q99808 1-456): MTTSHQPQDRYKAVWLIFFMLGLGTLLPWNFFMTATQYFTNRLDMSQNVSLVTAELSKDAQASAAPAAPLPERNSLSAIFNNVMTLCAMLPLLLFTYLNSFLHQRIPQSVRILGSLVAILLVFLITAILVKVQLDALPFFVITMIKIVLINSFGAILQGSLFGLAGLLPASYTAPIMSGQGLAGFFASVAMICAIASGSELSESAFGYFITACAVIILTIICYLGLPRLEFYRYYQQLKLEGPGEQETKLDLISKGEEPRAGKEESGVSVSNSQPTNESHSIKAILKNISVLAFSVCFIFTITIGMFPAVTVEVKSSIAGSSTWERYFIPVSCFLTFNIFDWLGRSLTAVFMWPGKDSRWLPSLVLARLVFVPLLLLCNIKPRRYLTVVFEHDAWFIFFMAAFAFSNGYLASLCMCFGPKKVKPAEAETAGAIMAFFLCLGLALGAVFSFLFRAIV
Procedure: D. Pharmacological Data D.1hENT1-NBMPR-ERYTH Assay
The affinity of compounds to the human ENT1 transporter was determined in a binding assay using [^3H]NBMPR (19.9 Ci/mmol) from Moravek Biochemicals (Brea, Calif.). Erythrocytes were isolated from freshly isolated EDTA anti-coagulated human blood. 4 ml human whole blood was diluted in 11 ml wash buffer (20 mM MOPS, 130 mM NaCl, pH 7.4) and centrifuged at 800 g for 5 minutes. Erythrocytes were washed two times with wash buffer by centrifugation at 800 g for 5 minutes and then resuspended in wash buffer to the original whole blood volume and stored at −80° C. Binding experiments were performed at apparent binding equilibrium (30 minutes incubation at room temperature) with washed red blood cells diluted 1:200 in assay buffer (20 mM Tris, 140 mM NaCl, […], 2 mM MgCl2, 0.1 mM EDTA, 5 mM Glucose, pH 7.4) and 1 nM of radioligand. Test compounds were pre-incubated with the red blood cells for 30 minutes at room temperature. Non-specific binding was estimated in the presence of 1 μM Draflazine. The incubation was stopped by rapid filtration using Unifilter-96 GF/C filter plates on a 96-well PerkinElmer Filtermate harvester followed by three washes with ice-cold assay buffer. Bound radioactivity was determined by liquid scintillation counting (Topcount, (PerkinElmer)).

IC50 (human ENT1 transporter) [nM] | melting point [°C] | SMILES
2.57 | 135.95 | Cc1cc(OC2CCCC2)c2c(c1)C(=O)CC1(CCN(CCNC(=O)c3c(Cl)cccc3Cl)CC1)O2 [Compound 189]
18.6 | 191.14 | Nc1cc2c(cc1Cl)CCC1(CCN(CCNC(=O)c3c(Cl)cccc3Cl)CC1)O2 [Compound 10]
11 | – | CN1CCC(Oc2cc3c(cc2Cl)C(=O)NC2(CCN(CCNC(=O)c4c(Cl)cccc4Cl)CC2)O3)CC1 [Compound 26]
9.77 | 236.63 | Nc1ccc2c(c1Cl)OC1(CCN(CCNC(=O)c3c(Cl)cccc3Cl)CC1)CC2=O [Compound 130]
0.776 | 146.87 | CC(=O)N1CCC(Oc2cc3c(cc2Cl)C(=O)NC2(CCN(CCNC(=O)c4c(Cl)cccc4Cl)CC2)O3)CC1 [Compound 27]
0.776 | – | Cc1cc2c(cc1NC1CCCC1)OC1(CCN(CCNC(=O)c3c(Cl)cccc3Cl)CC1)CC2=O [Compound 127]
107 | 245.16 | O=C1NC2(CCN(CCNC(=O)c3c(Cl)cccc3Cl)CC2)Oc2c1cc(Cl)cc2N1CCOCC1 [Compound 205]
4.27 | – | CC(C)Nc1ccc2c(c1)OC1(CCN(CCNC(=O)c3c(Cl)cccc3Cl)CC1)NC2=O [Compound 3]
1.51 | – | O=C1CC2(CCN(CCNC(=O)c3c(Cl)cccc3Cl)CC2)Oc2c1ccc(NC1CCCC1)c2Cl [Compound 208]
10.2 | – | O=C1NC2(CCN(CCNC(=O)c3c(Cl)cccc3Cl)CC2)Oc2cc(OC3CCNCC3)c(Cl)cc21 [Compound 23]
6.46 | – | COCNc1cc2c(cc1Cl)C(=O)NC1(CCN(CCNC(=O)c3c(Cl)cccc3Cl)CC1)O2 [Compound 2]
89.1 | – | CNCCCNc1cc2c(cc1Cl)C(=O)NC1(CCN(CCNC(=O)c3c(Cl)cccc3Cl)CC1)O2 [Compound 43]
3.8 | 238.02 | O=C1NC2(CCN(CCNC(=O)c3c(Cl)cccc3Cl)CC2)Oc2c(NC3CCCC3)cc(Cl)cc21 [Compound 223]
0.776 | 238.27 | CC(=O)N1CCC(Nc2cc3c(cc2Cl)C(=O)NC2(CCN(CCNC(=O)c4c(Cl)cccc4Cl)CC2)O3)CC1 [Compound 96]
1.53 | – | CNc1cc2c(cc1Cl)CCC1(CCN(CCNC(=O)c3c(Cl)cccc3Cl)CC1)O2 [Compound 239]
89.1 | 245.39 | Nc1cc2c(cc1Cl)C(=O)NC1(CCN(CCNC(=O)c3c(Cl)cccc3Cl)CC1)O2 [Compound 1]
0.224 | 172.85 | CC(C)(C)OC(=O)N1CCC(Oc2cc3c(cc2Cl)C(=O)NC2(CCN(CCNC(=O)c4c(Cl)cccc4Cl)CC2)O3)CC1 [Compound 22]

The remaining lines, values behind:

SMILES | IC50 (human ENT1 transporter) [nM] | melting point [°C]
CC(=O)N1CCC(Oc2cc3c(cc2Cl)C=CC2(CCN(CCNC(=O)c4c(Cl)cccc4Cl)CC2)O3)CC1 [Compound 108] | 0.0447 | –
Cc1cc2c(cc1NCCCO)OC1(CCN(CCNC(=O)c3c(Cl)cccc3Cl)CC1)CC2=O [Compound 141] | 3.72 | –
COC(=O)[C@H]1CC[C@H](Oc2cc3c(cc2C)C(=O)CC2(CCN(CCNC(=O)c4c(Cl)cccc4Cl)CC2)O3)CC1 (as salt: oxalate) [Compound 199] | – | 191.24
Cc1c(O)ccc2c1OC1(CCN(CCNC(=O)c3c(Cl)cccc3Cl)CC1)CC2=O (as salt: hydrochloric acid salt) [Compound 91] | – | 187.06
COC(=O)[C@H]1CC[C@H](Oc2cc3c(cc2C)C(=O)CC2(CCN(CCNC(=O)c4c(Cl)cccc4Cl)CC2)O3)CC1 [Compound 199] | 0.343 | –
Cc1cccc(C)c1C(=O)NCCN1CCC2(CC1)NC(=O)c1cc(Cl)c(OC(C)C)cc1O2 [Compound 151] | 22.9 | 201.61 to 204.2
O=C1CC2(CCN(CCNC(=O)c3c(Cl)cccc3Cl)CC2)Oc2cc(O)ccc21 [Compound 93] | 120 | 209.19
CCCCNc1ccc2c(c1)C(=O)CC1(CCN(CCNC(=O)c3c(Cl)cccc3Cl)CC1)O2 [Compound 97] | 12 | 153.71 to 156.93
O=C1CC2(CCN(CCNC(=O)c3c(Cl)cccc3Cl)CC2)Oc2ccccc21 [Compound 45] | 417 | 197.7 to 198.6
COCCCNc1cc2c(cc1C)C(=O)CC1(CCN(CCNC(=O)c3c(Cl)cccc3Cl)CC1)O2 [Compound 133] | 1.82 | –
COC(=O)[C@H]1CC[C@@H](Oc2cc3c(cc2C)C(=O)CC2(CCN(CCNC(=O)c4c(Cl)cccc4Cl)CC2)O3)CC1 [Compound 222] | 0.531 | –
Cc1c(O)ccc2c1OC1(CCN(CCNC(=O)c3c(Cl)cccc3Cl)CC1)CC2=O [Compound 91] | 2.88 | –
CC(=O)N1CCC(Oc2cc3c(cc2Cl)CCC2(CCN(CCNC(=O)c4c(Cl)cccc4Cl)CC2)O3)CC1 [Compound 117] | 0.589 | –
COCCCNc1cc2c(cc1C)C(=O)CC1(CCN(CCNC(=O)c3c(Cl)cccc3Cl)CC1)O2 (as salt: oxalate) [Compound 133] | – | 157.06
